Laboratory results reported in US20210045385A1, “PYRIDAZINONE-SUBSTITUTED KETOXIMES AS HERBICIDES” (FMC Corporation, priority 2018, published 2021).

Experiments:
[1] = test system: Italian ryegrass (Lolium multiflorum); test: Test A preemergence, visual plant response rating; format: in vivo
How it was run: (§1)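 Ratings use a 0–100 visual scale (100 = complete control) against untreated controls, scored about 10 days after greenhouse treatment. Test chemicals were formulated in surfactant-containing non-phytotoxic solvent and applied either as soil spray after planting (preemergence) or onto one- to two-leaf, 2–10 cm plants (postemergence).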

[2] = test system: barnyardgrass (Echinochloa crus-galli); test: Test A preemergence, visual plant response rating; format: in vivo
How it was run: as §1

[3] = test system: foxtail, giant (giant foxtail, Setaria faberii); test: Test A preemergence, visual plant response rating; format: in vivo
How it was run: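 Compared with untreated controls, treated plants received a visual injury score on a 0–100 scale around 10 days after application. The compound, in a non-phytotoxic solvent with surfactant, was given as a preemergence soil spray or postemergence at the one- to two-leaf stage.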

kochia (Kochia scoparia) [4] = test: Test A preemergence, visual plant response rating; format: in vivo
How it was run: as §1

[5] = test system: pigweed (Amaranthus retroflexus); test: Test A preemergence, visual plant response rating; format: in vivo
How it was run: as §1

[6] = test system: Italian ryegrass (Lolium multiflorum); test: Test A postemergence, visual plant response rating; format: in vivo
How it was run: as §1

[7] = test system: barnyardgrass (Echinochloa crus-galli); test: Test A postemergence, visual plant response rating; format: in vivo
How it was run: as §1

[8] = test system: blackgrass (Alopecurus myosuroides); test: Test A postemergence, visual plant response rating; format: in vivo
How it was run: as §1

corn (Zea mays) [9] = test: Test A postemergence, visual plant response rating; format: in vivo
How it was run: as §1

[10] = test system: foxtail, giant (giant foxtail, Setaria faberii); test: Test A postemergence, visual plant response rating; format: in vivo
How it was run: as §1

[11] = test system: galium (catchweed bedstraw, Galium aparine); test: Test A postemergence, visual plant response rating; format: in vivo
How it was run: as §1

kochia (Kochia scoparia) [12] = test: Test A postemergence, visual plant response rating; format: in vivo
How it was run: as §1

[13] = test system: pigweed (Amaranthus retroflexus); test: Test A postemergence, visual plant response rating; format: in vivo
How it was run: as §1

[14] = test system: ragweed (common ragweed, Ambrosia elatior); test: Test A postemergence, visual plant response rating; format: in vivo
How it was run: as §1

[15] = test system: wheat (Triticum aestivum); test: Test A postemergence, visual plant response rating; format: in vivo
How it was run: as §1

[16] = test system: barnyardgrass (Echinochloa crus-galli); test: Test B flooded paddy test, visual plant response rating; format: in vivo; details: 250 g ai/ha, Flood, applied to paddy water, 2-leaf stage, evaluated after 13 to 15 days
How it was run: (§2)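 Test pots are flooded 3 cm above the soil at treatment, and the test substance is introduced into this standing water. After keeping the flood level and growing plants, treated at the 2-leaf stage, for 13 to 15 days under glass, injury is assessed visually versus controls.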

[17] = test system: ducksalad (Heteranhera limosa); test: as above; format: in vivo; details: 250 g ai/ha, Flood, applied to paddy water, 2-leaf stage, evaluated after 13 to 15 days
How it was run: as §2

rice (Oryza sativa) [18] = test: as above; format: in vivo; details: 250 g ai/ha, Flood, applied to paddy water, 2-leaf stage, evaluated after 13 to 15 days
How it was run: as §2

[19] = test system: sedge, umbrella (small-flower umbrella sedge, Cyperus difformis); test: as above; format: in vivo; details: 250 g ai/ha, Flood, applied to paddy water, 2-leaf stage, evaluated after 13 to 15 days
How it was run: as §2

[20] = test system: Italian ryegrass (Lolium mutiflorum); test: Test C preemergence, visual plant response rating; format: in vivo
How it was run: (§3)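 Seeds sown in a loam–sand blend got a directed preemergence soil spray; postemergence plants (2–10 cm, one- to two-leaf stage) were sprayed with compound in a non-phytotoxic solvent plus surfactant. Injury was scored visually against untreated controls after about 10 d in a greenhouse on a 0–100 scale (100 = complete control).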

[21] = test system: barnyardgrass (Echinochloa crus-galli); test: Test C preemergence, visual plant response rating; format: in vivo
How it was run: as §3

[22] = test system: foxtail, green (green foxtail, Setaria viridis); test: Test C preemergence, visual plant response rating; format: in vivo
How it was run: as §3

kochia (Bassia scoparia) [23] = test: Test C preemergence, visual plant response rating; format: in vivo
How it was run: as §3

[24] = test system: pigweed (Amaranthus retroflexus); test: Test C preemergence, visual plant response rating; format: in vivo
How it was run: as §3

[25] = test system: ragweed (common ragweed, Ambrosia artemisiifolia); test: Test C preemergence, visual plant response rating; format: in vivo
How it was run: as §3

[26] = test system: Italian ryegrass (Lolium mutiflorum); test: Test C postemergence, visual plant response rating; format: in vivo; details: Test C, postemergence
How it was run: as §3

[27] = test system: barnyardgrass (Echinochloa crus-galli); test: Test C postemergence, visual plant response rating; format: in vivo; details: Test C, postemergence
How it was run: as §3

[28] = test system: blackgrass (Alopecurus myosuroides); test: Test C postemergence, visual plant response rating; format: in vivo; details: Test C, postemergence
How it was run: as §3

corn (Zea mays) [29] = test: Test C postemergence, visual plant response rating; format: in vivo; details: Test C, postemergence
How it was run: as §3

[30] = test system: foxtail, green (green foxtail, Setaria viridis); test: Test C postemergence, visual plant response rating; format: in vivo
How it was run: as §3

kochia (Bassia scoparia) [31] = test: Test C postemergence, visual plant response rating; format: in vivo; details: Test C, postemergence
How it was run: as §3

[32] = test system: pigweed (Amaranthus retroflexus); test: Test C postemergence, visual plant response rating; format: in vivo; details: Test C, postemergence
How it was run: as §3

[33] = test system: ragweed (common ragweed, Ambrosia artemisiifolia); test: Test C postemergence, visual plant response rating; format: in vivo; details: Test C, postemergence
How it was run: as §3

[34] = test system: wheat (Triticum aestivum); test: Test C postemergence, visual plant response rating; format: in vivo; details: Test C, postemergence
How it was run: as §3

[35] = test system: barnyardgrass (Echinochloa crus-galli); test: Test D flooded paddy test, visual plant response rating; format: in vivo; details: 250 g ai/ha, scale 0 to 100 (0 no effect, 100 complete control), 13 to 15 d
How it was run: (§4)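 Greenhouse paddy assay scored on a 0–100 visual scale after 13 to 15 d, where 100 means complete control and a dash marks no result; dosing was into 3 cm floodwater over 2-leaf plants.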

[36] = test system: duck salad (Heteranthera limosa); test: as above; format: in vivo; details: 250 g ai/ha, scale 0 to 100 (0 no effect, 100 complete control), 13 to 15 d
How it was run: as §4

rice (Oryza sativa) [37] = test: as above; format: in vivo; details: 250 g ai/ha, scale 0 to 100 (0 no effect, 100 complete control), 13 to 15 d
How it was run: as §4

[38] = test system: sedge umbrella (small-flower umbrella sedge, Cyperus difformis); test: as above; format: in vivo; details: 250 g ai/ha, scale 0 to 100 (0 no effect, 100 complete control), 13 to 15 d
How it was run: as §4

[39] = 125 g ai/ha, preemergence, 0 to 100 scale, 0 no effect, 100 complete control
[40] = 500 g ai/ha Preemergence, approx. 10 days
[41] = 500 g ai/ha, postemergence, 0 is no effect, 100 is complete control
[42] = Postemergence, 125 g ai/ha, 0 to 100 scale (0 no effect, 100 complete control)

## CO/N=C(/c1c(O)c(C)nn(C)c1=O)c1cc(Br)cc2ccccc12 [Compound 99, 4-[(E)-(3-bromo-1-naphthalenyl)(methoxyimino)methyl]-5-hydroxy-2,6-dimethyl-3(2H)-pyridazinone]
[1]; [39]
  Ryegrass, Italian plant response rating: 90
[1]; [40]
  Ryegrass, Italian plant response rating (0 to 100 scale): 100
[2]; [39]
  Barnyardgrass plant response rating: 90
[2]; [40]
  Barnyardgrass plant response rating (0 to 100 scale): 100
[3]; [39]
  Foxtail, Giant plant response rating: 100
[3]; [40]
  Foxtail, Giant plant response rating (0 to 100 scale): 100
Kochia (Kochia scoparia) [4]; [39]
  Kochia plant response rating: 70
Kochia (Kochia scoparia) [4]; [40]
  Kochia plant response rating (0 to 100 scale): 90
[5]; [39]
  Pigweed plant response rating: 90
[5]; [40]
  Pigweed plant response rating (0 to 100 scale): 100
[6]; [41]
  Ryegrass, Italian plant response rating (0 to 100 scale): 90
[6]; [42]
  Ryegrass, Italian plant response rating: 90
[7]; [41]
  Barnyardgrass plant response rating (0 to 100 scale): 90
[7]; [42]
  Barnyardgrass plant response rating: 80
[8]; [41]
  Blackgrass plant response rating (0 to 100 scale): 100
[8]; [42]
  Blackgrass plant response rating: 90
Corn (Zea mays) [9]; [41]
  Corn plant response rating (0 to 100 scale): 60
Corn (Zea mays) [9]; [42]
  Corn plant response rating: 30
[10]; [41]
  Foxtail, Giant plant response rating (0 to 100 scale): 80
[10]; [42]
  Foxtail, Giant plant response rating: 80
[11]; [41]
  Galium plant response rating (0 to 100 scale): 100
[11]; [42]
  Galium plant response rating: 90
Kochia (Kochia scoparia) [12]; [41]
  Kochia plant response rating (0 to 100 scale): 70
Kochia (Kochia scoparia) [12]; [42]
  Kochia plant response rating: 50
[13]; [41]
  Pigweed plant response rating (0 to 100 scale): 100
[13]; [42]
  Pigweed plant response rating: 60
[14]; [41]
  Ragweed plant response rating (0 to 100 scale): 90
[14]; [42]
  Ragweed plant response rating: 90
[15]; [41]
  Wheat plant response rating (0 to 100 scale): 80
[15]; [42]
  Wheat plant response rating: 50
[16]
  Plant response rating, Barnyardgrass (0 to 100 scale, 0 is no effect, 100 is complete control): 25
[17]
  Plant response rating, Ducksalad (0 to 100 scale, 0 is no effect, 100 is complete control): 70
Rice (Oryza sativa) [18]
  Plant response rating, Rice (0 to 100 scale, 0 is no effect, 100 is complete control): 15
[19]
  Plant response rating, Sedge, Umbrella (0 to 100 scale, 0 is no effect, 100 is complete control): 70
other
  melting point: 194 to 198 °C

## Cc1nn(C)c(=O)c(/C(=N\OCc2ccccc2)c2cccc(Cl)c2)c1O [Compound 149]
[20]; 125 g ai/ha
  Ryegrass, Italian plant response rating (0 to 100 scale): 0
[20]; 500 g ai/ha
  Ryegrass, Italian plant response rating (0 to 100 scale): 0
[21]; 125 g ai/ha
  Barnyardgrass plant response rating (0 to 100 scale): 0
[21]; 500 g ai/ha
  Barnyardgrass plant response rating (0 to 100 scale): 0
[22]; 125 g ai/ha
  Foxtail, Green plant response rating (0 to 100 scale): 0
[22]; 500 g ai/ha
  Foxtail, Green plant response rating (0 to 100 scale): 0
Kochia (Bassia scoparia) [23]; 125 g ai/ha
  Kochia plant response rating (0 to 100 scale): 0
Kochia (Bassia scoparia) [23]; 500 g ai/ha
  Kochia plant response rating (0 to 100 scale): 0
[24]; 125 g ai/ha
  Pigweed plant response rating (0 to 100 scale): 0
[24]; 500 g ai/ha
  Pigweed plant response rating (0 to 100 scale): 20
[25]; 125 g ai/ha
  Ragweed plant response rating (0 to 100 scale): 0
[25]; 500 g ai/ha
  Ragweed plant response rating (0 to 100 scale): 0
[26]; 125 g ai/ha
  Ryegrass, Italian plant response rating (0 to 100 scale): 0
[26]; 500 g ai/ha
  Ryegrass, Italian plant response rating (0 to 100 scale): 10
[27]; 125 g ai/ha
  Barnyardgrass plant response rating (0 to 100 scale): 0
[27]; 500 g ai/ha
  Barnyardgrass plant response rating (0 to 100 scale): 0
[28]; 125 g ai/ha
  Blackgrass plant response rating (0 to 100 scale): 0
[28]; 500 g ai/ha
  Blackgrass plant response rating (0 to 100 scale): 0
Corn (Zea mays) [29]; 125 g ai/ha
  Corn plant response rating (0 to 100 scale): 0
Corn (Zea mays) [29]; 500 g ai/ha
  Corn plant response rating (0 to 100 scale): 0
[30]; 125 g ai/ha
  Foxtail, Green plant response rating (0 to 100 scale): 0
[30]; 500 g ai/ha
  Foxtail, Green plant response rating (0 to 100 scale): 0
Kochia (Bassia scoparia) [31]; 125 g ai/ha
  Kochia plant response rating (0 to 100 scale): 0
Kochia (Bassia scoparia) [31]; 500 g ai/ha
  Kochia plant response rating (0 to 100 scale): 0
[32]; 125 g ai/ha
  Pigweed plant response rating (0 to 100 scale): 0
[32]; 500 g ai/ha
  Pigweed plant response rating (0 to 100 scale): 0
[33]; 125 g ai/ha
  Ragweed plant response rating (0 to 100 scale): 0
[33]; 500 g ai/ha
  Ragweed plant response rating (0 to 100 scale): 0
[34]; 125 g ai/ha
  Wheat plant response rating (0 to 100 scale): 0
[34]; 500 g ai/ha
  Wheat plant response rating (0 to 100 scale): 0
[35]
  Plant response rating, Barnyardgrass (Flood): 0
[36]
  Plant response rating, Ducksalad (Flood): 0
Rice (Oryza sativa) [37]
  Plant response rating, Rice (Flood): 0
[38]
  Plant response rating, Sedge, Umbrella (Flood): 0
